Measurements published in patent publication US8420865B2, “Phosphine compound, process for producing the same, and peroxide scavenger using the same” (Fukuoka University, priority 2008, dated 2013).

How the values were obtained:
[1] = Oxidation of MitoDPPP in an aqueous solution with hydrogen peroxide and tBHP; conditions: FIG. 4
[2] = tested on: HepG2 cells; assay: Loading into HepG2 cells and oxidation stimulated with tert-butoxyhydroperoxide (tBHP), fluorescence microscopy; type: cell-based; conditions: MitoDPPP 16 μM loaded 2 minutes, ten minutes after tBHP, FIG. 3
Description: Loading of MitoDPPP into HepG2 cells and oxidation stimulated with tert-butoxyhydroperoxide (tBHP) were monitored. A 0.1% dimethylsulfoxide solution of MitoDPPP (16 μM) was prepared. The solution was loaded into HepG2 cells for 2 minutes to stain the cells. The cells were washed with PBS and observed under a fluorescence microscope. Next, tert-butoxyhydroperoxide (tBHP) was added to the cells. Ten minutes later, the cells were observed under the fluorescence microscope.

[3] = tested on: HepG2 cells; assay: Oxidation of MitoDPPP loaded into HepG2 cells, hydrogen peroxide compared with tBHP, microplate reader; type: cell-based; conditions: MitoDPPP 16 μM loaded 10 minutes, FIG. 4
Description: The oxidation of MitoDPPP loaded into HepG2 cells was compared for hydrogen peroxide and tBHP. A 0.1% dimethylsulfoxide solution of MitoDPPP (16 μM) was prepared. The solution was loaded into HepG2 cells for 10 minutes. After washing the cells with PBS, hydrogen peroxide was added to the cells and the increase in fluorescence intensity was monitored on a microplate reader.

[4] = Oxidation of MitoDPPP with hydrogen peroxide in dimethylsulfoxide solution, fluorescence intensity over time; conditions: MitoDPPP 16 μM in dimethylsulfoxide, 10 mM H2O2, 10 minutes, FIG. 1
Description: The time scale changes in fluorescence intensity were monitored for the oxidation with hydrogen peroxide of [3-(4-Phenoxyphenylphosphinopyrenylphosphino)propyl]triphenylphosphonium iodide [Ia] (MitoDPPP) obtained in EXAMPLE 1.
After 10 mM H2O2 was added dropwise to a dimethylsulfoxide solution of MitoDPPP (16 μM), fluorescence intensities at the fluorescence wavelength of 380 nm were measured for 10 minutes.

[5] = tested on: HepG2 cells; assay: Loading of MitoDPPP into HepG2 cells, fluorescence microscopy, comparison with Mito Tracker Green FM; type: cell-based; conditions: fluorescence microscope, comparison/double-staining with mitochondria-selective fluorescent dye, FIG. 2
Description: Loading of MitoDPPP into HepG2 cells was examined. A 20% dimethylsulfoxide solution of MitoDPPP (16 μM) was prepared and the solution was loaded into HepG2 cells for 10 minutes to stain the cells. After washing with PBS, the cells were observed under a fluorescence microscope.

Question: Which results are given for `[I-].c1ccc(Oc2ccc(P(CCC[P+](c3ccccc3)(c3ccccc3)c3ccccc3)c3ccc4ccc5cccc6ccc3c4c56)cc2)cc1` (stereo not drawn) [MitoDPPP]?
Answer: oxidation with hydrogen peroxide in an aqueous solution ([1]; hydrogen peroxide): proceeds rapidly; oxidation with tBHP in an aqueous solution ([1]; tBHP): proceeds rapidly; brightness of stained cells after tBHP loading compared to before [2]: increased; oxidation with hydrogen peroxide of MitoDPPP loaded into HepG2 cells [3]: not oxidized; fluorescence intensity at the fluorescence wavelength of 380 nm on oxidation with hydrogen peroxide [4]: increase in the fluorescence intensity; localization in cells [5]: localized in mitochondria
